Measured values taken from patent US9630931B2, “Pharmaceutically active pyrazine derivatives” (Sentinel Oncology Limited, priority 2011, dated 2017).
Where a name gives a salt, the structure may show the parent alone.

How the values were obtained:
[1] = target: Chk-1 kinase (Homo sapiens (Human), UniProt O14757); assay: Chk-1 kinase inhibiting activity (33P-ATP radiometric filter assay, CHKtide substrate); type: biochemical; conditions: recombinant full length GST-tagged CHK-1 0.5 nM, CHKtide 20 μM, 120 minutes at room temperature; read-out: IC50 against Chk-1 kinase
Protocol: The compounds of the invention were tested for activity against Chk-1 kinase using the materials and protocols set out below.
Base Reaction buffer: 20 mM Hepes (pH 7.5), 10 mM MgCl2, 1 mM EGTA, 0.02% Brij35, 0.02 mg/ml BSA, 0.1 mM Na3VO4, 2 mM DTT, 1% DMSO
Required cofactors are added individually to each kinase reaction
(i) Prepare indicated substrate in freshly prepared Base Reaction Buffer
(ii) Deliver any required cofactors to the substrate solution above
(iii) Deliver indicated kinase into the substrate solution and gently mix
(iv) Deliver compounds in DMSO into the kinase reaction mixture
(v) Deliver ^33P-ATP (specific activity 0.01 μCi/μl final) into the reaction mixture to initiate the reaction.
(vi) Incubate kinase reaction for 120 minutes at room temperature
(vii) Reactions are spotted onto P81 ion exchange paper (Whatman #3698-915)
(viii) Wash filters extensively in 0.1% phosphoric acid.
(ix) Dry filters and measure counts in scintillation counter
Recombinant full length construct, N-terminal GST tagged, purified from insect cells.
No special measures were taken to activate this kinase.
Final concentration in assay=0.5 nM
Peptide sequence: [[…]]
Final concentration in assay=20 μM
No additional cofactors are added to the reaction mixture
From the results obtained by following the above protocol, the IC50 values against Chk-1 kinase of a number of the compounds of the Examples were determined and these are shown in Table 3.

[2] = system: MV4-11 cells; assay: Inhibition of cell growth in MV4-11 cells (Alamar blue, 72 h); type: cell-based; conditions: Homo sapiens, 72 h incubation
Protocol: (§1) Studies were carried out to test the effect of compounds on the inhibition of cell growth in MOLM-13 and MV4-11 cells.
(§2) The following protocol was used:
(§3) (a) Cells were seeded in 96-well plates at cell densities of 2500/well (MOLM-13) and 10,000/well (MV4-11). Cells were then incubated overnight prior to addition of compound or vehicle control.
(§4) (b) Test compounds were prepared from 10 mM DMSO stocks to give a final concentration range of 10 μM, 3 μM, 1 μM, 0.3 μM, […], 0.03 μM, 0.01 μM, […] vehicle control. The DMSO content was constant at 0.1%.
(§5) (c) Test compounds were incubated with the cells for 72 h at 37° C. 5% CO2 in a humidified atmosphere.
(§6) (d) Alamar blue 10% (v/v) was then added and incubated for a further 4 h, and fluorescent product detected using the BMG FLUOstar plate reader.
(§7) (e) Media only background values were subtracted and the data analysed using a 4-parameter logistic equation in GraphPad Prism.

[3] = system: MOLM-13 cells; assay: Inhibition of cell growth in MOLM-13 cells (Alamar blue, 72 h); type: cell-based; conditions: Homo sapiens, 72 h incubation
Protocol: as §1, §2, §3, §4, §5, §6, §7

Chain of Chk-1 kinase (O14757 whole entry): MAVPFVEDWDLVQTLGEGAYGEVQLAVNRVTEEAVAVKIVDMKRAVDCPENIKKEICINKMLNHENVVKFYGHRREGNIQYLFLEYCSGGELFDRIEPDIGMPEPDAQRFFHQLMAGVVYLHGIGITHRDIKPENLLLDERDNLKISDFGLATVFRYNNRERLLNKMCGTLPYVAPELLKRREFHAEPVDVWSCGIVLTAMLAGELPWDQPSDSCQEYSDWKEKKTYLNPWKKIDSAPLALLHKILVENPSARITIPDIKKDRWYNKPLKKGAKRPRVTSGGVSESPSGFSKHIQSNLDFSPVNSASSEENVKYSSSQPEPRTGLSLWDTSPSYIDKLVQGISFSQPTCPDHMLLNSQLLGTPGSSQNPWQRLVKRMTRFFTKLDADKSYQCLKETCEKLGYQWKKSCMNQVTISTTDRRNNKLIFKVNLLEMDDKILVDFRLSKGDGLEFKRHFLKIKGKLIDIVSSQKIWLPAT

Row | IC50 [1] [µM] | IC50 [2] [µM] | IC50 [3] [µM] | Compound
1 | 0.0029 | – | – | CC(C)Oc1cc(CCN[C@@H](C)C(=O)N2CCOCC2)ccc1NC(=O)Nc1cnc(C#N)cn1 [Example 30, 1-(5-Cyano-pyrazin-2-yl)-3-{2-isopropoxy-4-[2-((S)-1-methyl-2-morpholin-4-yl-2-oxo-ethylamino)-ethyl]-phenyl}-urea hydrochloride]
2 | 0.0011 | – | – | COc1cc(CCN[C@H](C)CN2CCOCC2)c(Cl)cc1NC(=O)Nc1cnc(C#N)cn1 [Example 24, 1-{5-Chloro-2-methoxy-4-[2-((R)-1-methyl-2-morpholin-4-yl-ethylamino)-ethyl]-phenyl}-3-(5-cyano-pyrazin-2-yl)-urea hydrochloride]
3 | 0.0019 | 0.481 | – | COc1cc(CCNCC(=O)N2CCOCC2)c(Cl)cc1NC(=O)Nc1cnc(C#N)cn1 [Example 19, 1-{5-Chloro-2-methoxy-4-[2-(2-morpholin-4-yl-2-oxo-ethylamino)-ethyl]-phenyl}-3-(5-cyano-pyrazin-2-yl)-urea hydrochloride]
4 | 0.0001 | 0.386 | 0.24 | COc1cc(CCNCC2CCNCC2)c(Cl)cc1NC(=O)Nc1cnc(C#N)cn1 [Example 1, 1-(5-Chloro-2-methoxy-4-{2-[(piperidin-4-ylmethyl)-amino]-ethyl}-phenyl)-3-(5-cyano-pyrazin-2-yl)-urea hydrochloride]
5 | 0.00065 | 0.08 | 0.035 | COc1cc(CCN[C@@H](C)C2CCN(C(=O)C3CC3)CC2)c(Cl)cc1NC(=O)Nc1cnc(C#N)cn1 [Example 10, 1-(5-Chloro-4-{2-[(S)-1-(1-cyclopropane-carbonyl-piperidin-4-yl)-ethylamino]-ethyl}-2-methoxy-phenyl)-3-(5-cyano-pyrazin-2-yl)-urea hydrochloride]
6 | 0.00027 | – | – | COc1cc(CCN[C@H](C)C2CCN(S(C)(=O)=O)CC2)c(Cl)cc1NC(=O)Nc1cnc(C#N)cn1 [Example 13, 1-(5-Chloro-4-{2-[(R)-1-(1-methanesulfonyl-piperidin-4-yl)-ethylamino]-ethyl}-2-methoxy-phenyl)-3-(5-cyano-pyrazin-2-yl)-urea hydrochloride]
7 | 0.00069 | 0.056 | 0.029 | COc1cc(CCNCCN2CCN(C)CC2)c(Cl)cc1NC(=O)Nc1cnc(C#N)cn1 [Example 9, 1-(5-Chloro-2-methoxy-4-{2-[2-(4-methyl-piperazin-1-yl)-ethylamino]-ethyl}-phenyl)-3-(5-cyano-pyrazin-2-yl)-urea hydrochloride]
8 | 0.00021 | 0.135 | – | CC(C)Oc1cc(CCNCC(=O)N2CCOCC2)c(Cl)cc1NC(=O)Nc1cnc(C#N)cn1 [Example 27, 1-{5-Chloro-2-isopropoxy-4-[2-(2-morpholin-4-yl-2-oxo-ethylamino)-ethyl]-phenyl}-3-(5-cyano-pyrazin-2-yl)-urea hydrochloride]
9 | 0.00028 | 0.231 | 0.059 | COc1cc(CCN[C@@H](C)C2CCN(S(C)(=O)=O)CC2)c(Cl)cc1NC(=O)Nc1cnc(C#N)cn1 [Example 11, 1-(5-Chloro-4-{2-[(S)-1-(1-methanesulfonyl-piperidin-4-yl)-ethylamino]-ethyl}-2-methoxy-phenyl)-3-(5-cyano-pyrazin-2-yl)-urea hydrochloride]
10 | 0.0008 | 0.295 | 0.113 | COc1cc(CCNCCN2CCOCC2)c(Cl)cc1NC(=O)Nc1cnc(C#N)cn1 [Example 7, 1-{5-Chloro-2-methoxy-4-[2-(2-morpholin-4-yl-ethylamino)-ethyl]-phenyl}-3-(5-cyano-pyrazin-2-yl)-urea hydrochloride]
11 | 0.00061 | – | – | COc1cc(OCCNCCN2CCOCC2)c(Cl)cc1NC(=O)Nc1cnc(C#N)cn1 [Example 25, 1-{5-Chloro-2-methoxy-4-[2-(2-morpholin-4-yl-ethylamino)-ethoxy]-phenyl}-3-(5-cyano-pyrazin-2-yl)-urea hydrochloride]
12 | 0.01 | 3.76 | – | COc1cc(CCNC[C@H]2CN(C(=O)C3CC3)CCO2)ccc1NC(=O)Nc1cnc(C#N)cn1 [Example 21, 1-(5-Cyano-pyrazin-2-yl)-3-(4-{2-[((S)-4-cyclopropanecarbonyl-morpholin-2-ylmethyl)-amino]-ethyl}-2-methoxy-phenyl)-urea hydrochloride]
13 | 0.019 | 4.79 | – | COc1cc(CCN[C@@H](C)CN2CCOCC2)ccc1NC(=O)Nc1cnc(C#N)cn1 [Example 23, 1-(5-Cyano-pyrazin-2-yl)-3-{2-methoxy-4-[2-((S)-1-methyl-2-morpholin-4-yl-ethylamino)-ethyl]-phenyl}-urea hydrochloride]
14 | 0.0071 | – | – | CC(C)Oc1cc(CCNC(=O)[C@H]2CNCCO2)c(Cl)cc1NC(=O)Nc1cnc(C#N)cn1 [Example 20, (R)-Morpholine-2-carboxylic acid (2-{2-chloro-4-[3-(5-cyano-pyrazin-2-yl)-ureido]-5-isopropoxy-phenyl}-ethyl)-amide hydrochloride]
15 | 0.00048 | 0.39 | – | COc1cc(CCN[C@@H](C)C(=O)N2CCOCC2)c(Cl)cc1NC(=O)Nc1cnc(C#N)cn1 [Example 28, 1-{5-Chloro-2-methoxy-4-[2-((S)-1-methyl-2-morpholin-4-yl-2-oxo-ethylamino)-ethyl]-phenyl}-3-(5-cyano-pyrazin-2-yl)-urea hydrochloride]
16 | 0.00058 | 0.8 | – | COc1cc(CCNCC(=O)N2CCN(C)CC2)c(Cl)cc1NC(=O)Nc1cnc(C#N)cn1 [Example 26, 1-(5-Chloro-2-methoxy-4-{2-[2-(4-methyl-piperazin-1-yl)-2-oxo-ethylamino]-ethyl}-phenyl)-3-(5-cyano-pyrazin-2-yl)-urea hydrochloride]
17 | 0.0004 | 0.202 | – | COc1cc(CCNC[C@H]2CN(C(=O)C3CC3)CCO2)c(Cl)cc1NC(=O)Nc1cnc(C#N)cn1 [Example 14, 1-(5-Chloro-4-{2-[((S)-4-cyclopropanecarbonyl-morpholin-2-ylmethyl)-amino]-ethyl}-2-methoxy-phenyl)-3-(5-cyano-pyrazin-2-yl)-urea hydrochloride]
18 | 0.076 | – | – | COc1cc(CCNC(=O)CN2CCOCC2)c(Cl)cc1NC(=O)Nc1cnc(C#N)cn1 [Example 16, N-(2-{2-Chloro-4-[3-(5-cyano-pyrazin-2-yl)-ureido]-5-methoxy-phenyl}-ethyl)-2-morpholin-4-yl-acetamide hydrochloride]
19 | 0.00052 | 0.175 | – | COc1cc(CCN[C@@H](C)CN2CCOCC2)c(Cl)cc1NC(=O)Nc1cnc(C#N)cn1 [Example 18, 1-{5-Chloro-2-methoxy-4-[2-((S)-1-methyl-2-morpholin-4-yl-ethylamino)-ethyl]-phenyl}-3-(5-cyano-pyrazin-2-yl)-urea hydrochloride]

Row | Compound | IC50 [1] [µM] | IC50 [2] [µM] | IC50 [3] [µM]
20 | COc1cc(CCNC(=O)CN2CCN(C)CC2)c(Cl)cc1NC(=O)Nc1cnc(C#N)cn1 [Example 17, N-(2-{2-Chloro-4-[3-(5-cyano-pyrazin-2-yl)-ureido]-5-methoxy-phenyl}-ethyl)-2-(4-methyl-piperazin-1-yl)-acetamide hydrochloride] | 0.013 | – | –
21 | CC(C)Oc1cc(CCNC(=O)CN2CCN(C)CC2)c(Cl)cc1NC(=O)Nc1cnc(C#N)cn1 [Example 22, N-(2-{2-Chloro-4-[3-(5-cyano-pyrazin-2-yl)-ureido]-5-isopropoxy-phenyl}-ethyl)-2-(4-methyl-piperazin-1-yl)-acetamide hydrochloride] | 0.0082 | 0.519 | –
22 | COc1cc(CCNC[C@@H]2CNCCO2)c(Cl)cc1NC(=O)Nc1cnc(C#N)cn1 [Example 3, 1-(5-Chloro-2-methoxy-4-{2-[((R)-1-morpholin-2-ylmethyl)-amino]-ethyl}-phenyl)-3-(5-cyano-pyrazin-2-yl)-urea hydrochloride] | 0.00014 | 0.173 | 0.081
23 | CC(C)Oc1cc(CCNCCN2CCOCC2)c(Cl)cc1NC(=O)Nc1cnc(C#N)cn1 [Example 8, 1-{5-Chloro-2-isopropoxy-4-[2-(2-morpholin-4-yl-ethylamino)-ethyl]-phenyl}-3-(5-cyano-pyrazin-2-yl)-urea hydrochloride] | 0.00075 | 0.038 | 0.028
24 | COc1cc(CCNC(=O)[C@H]2CNCCO2)c(Cl)cc1NC(=O)Nc1cnc(C#N)cn1 [Example 15, (R)-Morpholine-2-carboxylic acid (2-{2-chloro-4-[3-(5-cyano-pyrazin-2-yl)-ureido]-5-methoxy-phenyl}-ethyl)-amide hydrochloride] | 0.02 | – | –
